In US20060069132A1, “Azolecarboxamide herbicides” (priority 2004, published 2006):

How the values were obtained:
blackgrass = assay: Test B postemergence herbicide test; format: in vivo, Alopecurus myosuroides; conditions: postemergence
Procedure, shortened: (§1)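 Scale 0–100: zero equals no visible effect, 100 complete control, judged by eye relative to controls. Timing: 13 to 15 days in greenhouse post-treatment. Growth stage at spraying: two leaves (paddy) or one to four leaves, 2–18 cm (postemergence).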

wild oat = assay: Test B postemergence herbicide test; format: in vivo, Avena fatua; conditions: scale 0 (no effect) to 100 (complete control)
Procedure, shortened: (§2)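 Greenhouse test; postemergence application to plants at 1–4 leaves (2–18 cm); paddy species at 2 leaves; evaluated visually vs controls at 13–15 days; scale 0–100 (100 = complete control).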

giant foxtail = assay: Test B pre-/postemergence herbicide test; format: in vivo, Setaria faberi; conditions: for Plant response rating (0 to 100 scale), Foxtail, Giant: 0 is no effect, preemergence; for Foxtail, Giant plant response rating: postemergence
Procedure, shortened: (§3)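 Test chemicals in a non-phytotoxic solvent mixture with surfactant were applied preemergence to seeded species and postemergence to plants 2-18 cm tall (1- to 4-leaf stage); rice and barnyardgrass were also tested in a flooded paddy at the 2-leaf stage. Visual rating versus controls after 13-15 days in greenhouse, scale 0 (no effect) to 100 (complete control).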

lambsquarters = assay: Test B pre-/postemergence herbicide test; format: in vivo, Chenopodium album; conditions: for Plant response rating (0 to 100 scale), Lambsquarters: 0 is no effect, 100 is complete control, preemergence; for Lambsquarters plant response rating: scale 0 (no effect) to 100 (complete control)
Procedure, shortened: as §3

velvetleaf = assay: Test B pre-/postemergence herbicide test; format: in vivo, Abutilon theophrasti; conditions: for Plant response rating (0 to 100 scale), Velvetleaf: 0 is no effect, 100 is complete control, preemergence; for Velvetleaf plant response rating: scale 0 (no effect) to 100 (complete control)
Procedure, shortened: as §3

barnyardgrass [1] = assay: Test B pre-/postemergence herbicide test; format: in vivo, Echinochloa crus-galli; conditions: for Plant response rating (0 to 100 scale), Barnyardgrass: 0 is no effect, preemergence; for Barnyardgrass plant response rating: postemergence
Procedure, shortened: (§4)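 Formulation: non-phytotoxic solvent mix with surfactant. Timing: preemergence on seed and postemergence on 2–18 cm plants, applied concurrently. Readout after 13–15 d greenhouse: visual 0–100 control rating against controls.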

pigweed = assay: Test B pre-/postemergence herbicide test; format: in vivo, Amaranthus retroflexus; conditions: for Plant response rating (0 to 100 scale), Pigweed: 0 is no effect, 100 is complete control, preemergence; for Pigweed plant response rating: scale 0 (no effect) to 100 (complete control)
Procedure, shortened: as §3

Surinam grass = assay: Test B pre-/postemergence herbicide test; format: in vivo, Urochloa decumbens; conditions: for Plant response rating (0 to 100 scale), Surinam Grass: 0 is no effect, 100 is complete control, preemergence; for Surinam Grass plant response rating: scale 0 (no effect) to 100 (complete control)
Procedure, shortened: as §3

ducksalad = assay: Test B flooded paddy test; format: in vivo, Heteranthera limosa; conditions: 1000 g ai/ha, scale 0 to 100 (0 no effect, 100 complete control)
Procedure, shortened: as §1

[2] = test system: small flower umbrella sedge; assay: Test B flooded paddy test; format: in vivo, Cyperus difformis; conditions: 1000 g ai/ha, scale 0 to 100 (0 no effect, 100 complete control)
Procedure, shortened: as §1

cocklebur = assay: Test B pre-/postemergence herbicide test; format: in vivo, Xanthium strumarium; conditions: for Plant response rating (0 to 100 scale), Cocklebur: 0 is no effect, preemergence; for Cocklebur plant response rating: postemergence
Procedure, shortened: as §4

large crabgrass = assay: Test B pre-/postemergence herbicide test; format: in vivo, Digitaria sanguinalis; conditions: for Plant response rating (0 to 100 scale), Crabgrass, Large: 0 is no effect, preemergence; for Crabgrass, Large plant response rating: postemergence
Procedure, shortened: as §3

morningglory = assay: Test B pre-/postemergence herbicide test; format: in vivo, Ipomoea coccinea; conditions: for Plant response rating (0 to 100 scale), Morningglory: 0 is no effect, 100 is complete control, preemergence; for Morningglory plant response rating: scale 0 (no effect) to 100 (complete control)
Procedure, shortened: as §4

corn = assay: Test B pre-/postemergence herbicide test; format: in vivo, Zea mays; conditions: for Plant response rating (0 to 100 scale), Corn: 0 is no effect, preemergence; for Corn plant response rating: postemergence
Procedure, shortened: as §3

wheat = assay: Test B postemergence herbicide test; format: in vivo, Triticum aestivum; set-up: key to Wheat plant response rating: 0 = no effect, 100 = complete control
Procedure, shortened: as §2

rice = assay: Test B flooded paddy test; format: in vivo, Oryza sativa; conditions: 1000 g ai/ha, scale 0 to 100 (0 no effect, 100 complete control)
Procedure, shortened: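 Paddy species grown to the 2-leaf stage under flooding; blackgrass sprayed postemergence at 2–18 cm (1- to 4-leaf stage). Plants kept in a greenhouse for 13 to 15 days, then visually rated against controls on 0 (no effect) to 100 (complete control).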

barnyardgrass [3] = assay: Test B flooded paddy test; format: in vivo, Echinochloa crus-galli; conditions: 1000 g ai/ha, scale 0 to 100 (0 no effect, 100 complete control)
Procedure, shortened: as §1

[4] = 125 g ai/ha, visual rating, scale 0 (no effect) to 100 (complete control)
[5] = 500 g ai/ha, scale 0 to 100, 0 is no effect, 100 is complete control
[6] = 125 g ai/ha, visual rating, postemergence
[7] = 125 g ai/ha, 100 is complete control
[8] = 125 g ai/ha, visual rating, scale 0 (no effect) to 100 (complete control), postemergence
[9] = 500 g ai/ha, scale 0 to 100, 0 no effect, 100 complete control, preemergence
[10] = Postemergence, 500 g ai/ha, scale 0 (no effect) to 100 (complete control)

CCc1nn(C(C)(C)C)nc1C(=O)Nc1cc(C(=O)N2CCCCC2)ccc1F [Compound 381]
Blackgrass plant response rating (blackgrass; [4]): 20
Blackgrass plant response rating (blackgrass; [5]): 30
Oat, Wild plant response rating (wild oat; [6]): 10
Oat, Wild plant response rating (wild oat; Postemergence, 500 g ai/ha): 20
Plant response rating (0 to 100 scale), Foxtail, Giant (giant foxtail; [7]): 10
Foxtail, Giant plant response rating (giant foxtail; [4]): 10
Foxtail, Giant plant response rating (giant foxtail; [5]): 20
Plant response rating (0 to 100 scale), Lambsquarters (lambsquarters; 125 g ai/ha): 40
Lambsquarters plant response rating (lambsquarters; [6]): 70
Lambsquarters plant response rating (lambsquarters; Postemergence, 500 g ai/ha): 80
Plant response rating (0 to 100 scale), Velvetleaf (velvetleaf; 125 g ai/ha): 10
Velvetleaf plant response rating (velvetleaf; [6]): 10
Velvetleaf plant response rating (velvetleaf; Postemergence, 500 g ai/ha): 40
Plant response rating (0 to 100 scale), Barnyardgrass (barnyardgrass [1]; [7]): 10
Barnyardgrass plant response rating (barnyardgrass [1]; [4]): 0
Barnyardgrass plant response rating (barnyardgrass [1]; [5]): 0
Plant response rating (0 to 100 scale), Pigweed (pigweed; 125 g ai/ha): 0
Pigweed plant response rating (pigweed; [6]): 20
Pigweed plant response rating (pigweed; Postemergence, 500 g ai/ha): 30
Plant response rating (0 to 100 scale), Surinam Grass (Surinam grass; 125 g ai/ha): 20
Surinam Grass plant response rating (Surinam grass; [6]): 10
Surinam Grass plant response rating (Surinam grass; Postemergence, 500 g ai/ha): 40
Ducksalad plant response rating (ducksalad): 70
Sedge, Umbrella plant response rating [2]: 70
Plant response rating (0 to 100 scale), Cocklebur (cocklebur; [7]): 0
Cocklebur plant response rating (cocklebur; [4]): 20
Cocklebur plant response rating (cocklebur; [5]): 20
Plant response rating (0 to 100 scale), Crabgrass, Large (large crabgrass; [7]): 70
Crabgrass, Large plant response rating (large crabgrass; [4]): 10
Crabgrass, Large plant response rating (large crabgrass; [5]): 20
Plant response rating (0 to 100 scale), Morningglory (morningglory; 125 g ai/ha): 0
Morningglory plant response rating (morningglory; [6]): 20
Morningglory plant response rating (morningglory; Postemergence, 500 g ai/ha): 80
Plant response rating (0 to 100 scale), Corn (corn; [7]): 0
Corn plant response rating (corn; [4]): 0
Corn plant response rating (corn; [5]): 10
Wheat plant response rating (wheat; [8]): 10
Wheat plant response rating (wheat; [9]): 20
Wheat plant response rating (wheat; [10]): 20
Rice plant response rating (rice): 60
Barnyardgrass plant response rating (barnyardgrass [3]): 10

C=CCN(CC=C)C(=O)c1ccc(F)c(NC(=O)c2nn(C(C)(C)C)nc2CC)c1 [Compound 387]
Blackgrass plant response rating (blackgrass; [4]): 0
Blackgrass plant response rating (blackgrass; [5]): 20
Oat, Wild plant response rating (wild oat; [6]): 0
Oat, Wild plant response rating (wild oat; Postemergence, 500 g ai/ha): 30
Plant response rating (0 to 100 scale), Foxtail, Giant (giant foxtail; [7]): 0
Foxtail, Giant plant response rating (giant foxtail; [4]): 0
Foxtail, Giant plant response rating (giant foxtail; [5]): 20
Plant response rating (0 to 100 scale), Lambsquarters (lambsquarters; 125 g ai/ha): 0
Lambsquarters plant response rating (lambsquarters; [6]): 20
Lambsquarters plant response rating (lambsquarters; Postemergence, 500 g ai/ha): 20
Plant response rating (0 to 100 scale), Velvetleaf (velvetleaf; 125 g ai/ha): 0
Velvetleaf plant response rating (velvetleaf; [6]): 0
Velvetleaf plant response rating (velvetleaf; Postemergence, 500 g ai/ha): 10
Plant response rating (0 to 100 scale), Barnyardgrass (barnyardgrass [1]; [7]): 0
Barnyardgrass plant response rating (barnyardgrass [1]; [4]): 0
Barnyardgrass plant response rating (barnyardgrass [1]; [5]): 0
Plant response rating (0 to 100 scale), Pigweed (pigweed; 125 g ai/ha): 0
Pigweed plant response rating (pigweed; [6]): 20
Pigweed plant response rating (pigweed; Postemergence, 500 g ai/ha): 40
Plant response rating (0 to 100 scale), Surinam Grass (Surinam grass; 125 g ai/ha): 0
Surinam Grass plant response rating (Surinam grass; [6]): 0
Surinam Grass plant response rating (Surinam grass; Postemergence, 500 g ai/ha): 0
Ducksalad plant response rating (ducksalad): 0
Sedge, Umbrella plant response rating [2]: 0
Plant response rating (0 to 100 scale), Cocklebur (cocklebur; [7]): 0
Cocklebur plant response rating (cocklebur; [4]): 0
Cocklebur plant response rating (cocklebur; [5]): 20
Plant response rating (0 to 100 scale), Crabgrass, Large (large crabgrass; [7]): 0
Crabgrass, Large plant response rating (large crabgrass; [4]): 0
Crabgrass, Large plant response rating (large crabgrass; [5]): 0
Plant response rating (0 to 100 scale), Morningglory (morningglory; 125 g ai/ha): 0
Morningglory plant response rating (morningglory; [6]): 0
Morningglory plant response rating (morningglory; Postemergence, 500 g ai/ha): 10
Plant response rating (0 to 100 scale), Corn (corn; [7]): 0
Corn plant response rating (corn; [4]): 0
Corn plant response rating (corn; [5]): 0
Wheat plant response rating (wheat; [8]): 0
Wheat plant response rating (wheat; [9]): 0
Wheat plant response rating (wheat; [10]): 10
Rice plant response rating (rice): 0
Barnyardgrass plant response rating (barnyardgrass [3]): 0
